Consider one molecule from paper PMC12163725, “Synthesis and functionalization of vinyl sulfonimidamides and their potential as electrophilic warheads” (Chemical Science, 2025).

A short description of this series: Kinetic study of reaction with glutathione (GSH), half-life by 1H NMR (disappearance of vinyl group). As to conditions: second order kinetics, 1.0 equiv. glutathione, phosphate buffer pH 7.3 in D2O:(CD3)2SO = 2:1, 1H NMR.

Each structure is given as a SMILES string.

Method: The reactivity of the vinyl sulfonimidamides was next examined under biologically relevant conditions using glutathione (GSH) as the nucleophile at pH 7.3 (Scheme 4).[32] The half-life (t1/2) was determined using ^1H NMR analysis, with the disappearance of the vinyl group monitored as a function of time (full experimental details are provided in the ESI ^†). […] Due to the rapid reaction rates, the half-life for the majority of substrates was calculated using second-order kinetics. However, the half-life of unfunctionalized α-Me and β-Me-substituted sulfonimidamide derivatives were determined with pseudo-first-order kinetics using six equivalents of glutathione.
Reaction was conducted in a mixture of buffer solution and deuterated DMSO
(Buffer:(CD3)2SO = 2:1). A relatively high (CD3)2SO ratio was employed due to the insolubility
of less polar substrates in the buffer solution.
Buffer solution containing 0.0648 mol/L disodium hydrogen phosphate and 0.0153 mol/L
potassium dihydrogen phosphate at p H 7.3[10] was prepared using d euterium oxide and
stored at 20 °C. […] The stock solution […]
For the majority of substrates, the half-life was determined using second order kinetics with […]
was measured and plotted as the inverse against time. The half-life was calculated through […]
starting material was plotted as natural log and the half-life was calculated through the best-

In the case of `C=CS(=O)(=NS(C)(=O)=O)N1CCOCC1` (stereo not shown) [Compound 3e], the “Half-life (t1/2) of reaction with GSH” value is recorded as “too fast to be determined”.
